# Experimental data as given in patent EP0323416A2, “Phenylbenzylidene derivatives of 3-aminopropanesulfonic acid having anticonvulsant activity and pharmaceutical compositions containing same for the therapeutical treatment of epilepsy” (Sigma-Tau Industrie Farmaceutiche Riunite S.p.A., priority 1987, dated 1989).
# Marks after values point to notes of the source that are not given here.
# Tests used:
# [1] = system: cardiazol-induced convulsions; experiment: Cardiazol-induced convulsions test in mice; format: in vivo, male albino Swiss (Charles River) mice
# Experimental: (§1) The doses of cardiazol, strychinine, bicuculline and picrotoxin (100 mg/10 ml/kg i.p., 0.73 mg/10 ml/kg s.c., 2.38 mg/10 ml/kg s.c. and 4.42 mg/10 ml/kg s.c. respectively) were chosen in such a way as to provoke death of 50% of the control animals.
# (§2) The tests were carried out in male albino Swiss (Charles River) mice weighing 22-24 g which had been kept fasting for 18 hours.
# (§3) 100/0 gum arabic suspensions of the compounds under examination were orally administered 60 minutes before the convulsant agent administration.
# (§4) As reference substance, 3-APS (200-400-800 mg/10 ml/kg i.p.) was used.
# [2] = system: strychnine-induced convulsions; experiment: Strychnine-induced convulsions test in mice; format: in vivo, male albino Swiss (Charles River) mice
# Experimental: as §1, §2, §3, §4
# [3] = system: bicuculline-induced convulsions; experiment: Bicuculline-induced convulsions test in mice; format: in vivo, male albino Swiss (Charles River) mice
# Experimental: as §1, §2, §3, §4
# [4] = system: picrotoxin-induced convulsions; experiment: Picrotoxin-induced convulsions test in mice; format: in vivo, male albino Swiss (Charles River) mice
# Experimental: as §1, §2, §3, §4
# male albino Swiss mice = experiment: Tolerability test, oral; format: in vivo; conditions: suspension in 10% gum arabic, dose of 3 g/kg, mice fasting for 18 hours
# Experimental: The tolerability test was carried out on male albino Swiss mice weighing 22-24 g. The animals, which had been kept fasting for 18 hours, were orally administered a suspension in 10% gum arabic of the compounds ST 505 and ST 512.
# [5] = system: cardiazol-induced convulsions; experiment: Cardiazol-induced convulsions test in rats; format: in vivo, male albino Wistar rats; conditions: oral, 60 minutes before cardiazole 70 mg/10ml/kg i.p.
# Experimental: The compound was also orally administered to male albino Wistar rats weighing 170-200 g (see table 3), at the dose equimolar to 100 mg 3-APS 60 minutes before cardiazole administration (70 mg/10ml/kg i.p.).
# FeCl3-induced epilepsy = FeCl3-induced epilepsy model (EEG); format: in vivo, Male albino Wistar rats; conditions: 500 mg/kg oral 45 minutes following FeCl3 injection; Mann-Whitney's U test, P<0.05
# Experimental: Male albino Wistar rats weighing 250-300g were used. The animals, anaesthetized with Nembutal Na (30 mg/kg i.p.), were stereotactically injected in their left ventral hippocampus one microliter of 0.55 M FeCl3 solution (AP=-3.2; L=5.0.; H=5.5 Pelhgrino and Cushman, 1971). Ten minutes following injection, recording electrodes were implanted: in both ventral hippocampi, two millimiters below the FeCl3 injection site (bipolars), bilaterally on the frontoparietal cortex (monopolars). recording of cerebral bioelectric activity, carried out with an EEG OTE-Biomedica PF 14e recorder, began about one hour following FeCl3 injection and lasted more than three hours on end.The epilepsy degree was assessed by calculating for each animal the number and duration in seconds of the seizures at 15-minute intervals during the whole recording span both in the hyppocampus where the injection had been performed and in the contralateral cortex. Moreover, an "index of epileptization" was calculated as the mean product of seizure number times the duration of the seizures in each time interval. […]
# The results thus obtained show the antiepileptic activity of the compound assessed by examining the whole phenomenon as it evolves in time via the measure (carried out with the trapezoidal rule) of the area under the curve wherein the average number of seizures and their duration is plotted versus time.
# auricular electroshock = experiment: Auricular electroshock (maximal electroshock death); format: in vivo, Male albino Swiss mice; conditions: oral in gum arabic 60 minutes before the electroshock, 10 mice
# Experimental: Male albino Swiss mice weighing 22-24 g were used in this test. The electroshock conditions were the shock duration: 3 seconds; frequence: 100; pulse amplitude: 0.6 milliseconds, current intensity: 40 milliamperes. The compounds ST 505 and ST 512 suspended in gum arabic were orally administered 60 minutes before the electroshock.
# The tests results which illustrate the number of animal preserved from death provoked by maximal electroshock are shown in the following Table 4.
# [6] = system: Sodium penicillin G-induced epilepsy; experiment: Sodium penicillin G-induced epilepsy (EEG); format: in vivo, Male albino Wistar rats; conditions: rats
# Excerpt: In this regard, see: Holmes, O. arid Lockton, J.W.: "Locally generated interictal epilectic spikes in the cortex cerebri of the rat". J.Physiol. (Lond.), 308 (1980) 75-76 P. Lokcton, J.W. and Holmes, O: "Site of penicillin-induced epilepsy in the cortex cerebri of the rat'. Brain research, 190 (1980) 301-304. Reichental, E. and Hocherman, S. : "The critical cortical area for development of penicillin-induced epilepsy". Electroenceph. Clin. Neurophysiol., 42 (1977) 248-251).
# Male albino Wistar rats weighing 260-280 g were used in this test. Epilepsy was induced in these rats through the application of 5 mg of sodium penicillin G, power (Carlo Erba) on the left cortex cerebri. EEG recording (electroencephalograph OTE-Biomedica PF 14e) was carried out with cortical electrodes. Following a 15 minute recording period (basal), the animals were orally administered 250 mg/10 ml/kg of ST 505 suspended in 10% gum arabic. The controls were administered 10 ml/kg of 10% gum arabic.
# The following parameters were taken into account: • a) numper of peaks of the EEG tracing in subsequent 15 minu te intervals, in an overall 5-hour recording period; and • b) number of fits with attendant average duration for each interval.
# With regard to parameter a), the area under the curve was calculated wherein the number of peaks at different times and its accumulation function were plotted versus the observation time, thus obtaining five descriptive parameters: one which gives the measure (area) of the totale amount of epilepsy and four (shape indexes) describing the trends of the peaks during the time interval (five hours) under examination. These shape indexes were the percentile values at 50%, 60%, 70% and 800/0 of the accumulation function of the area versus time and represented, therefore, for each rat, a measure of the distribution of the epileptic fits in time.
# The fits were studied with the same model as that utilized for the peaks.
# [7] = 200, 400 and 800 mg/10 ml/kg i.p., mice
# [8] = 400 mg/10 ml/kg i.p., mice, versus control
# [9] = oral, 100 mg/kg eq. 3 APS, 60 minutes before convulsant, mice (Table 3)
# [10] = oral, 200 mg/kg eq. 3-APS, versus control
# [11] = oral, 200 mg/kg eq. 3 APS, 60 minutes before convulsant, mice (Table 3)
# [12] = oral, 100 mg/kg eq. 3-APS, versus control
# [13] = oral, 100 mg/kg eq. 3 APS, 60 minutes before convulsant, mice (Table 2)
# [14] = oral, 200 mg/kg eq. 3 APS, 60 minutes before convulsant, mice (Table 2)
compound,measurement,setting,value
"NCCCS(=O)(=O)O [3-APS, 3-aminopropanesulfonic acid]",Cardiazol % Death rate,"[1]; 200 mg/kg i.p., mice",50%
same,Cardiazol Strong % Conv.,"[1]; 200 mg/kg i.p., mice",100%
same,Cardiazol % Death rate,"[1]; 400 mg/kg i.p., mice",90%
same,Cardiazol Strong % Conv.,"[1]; 400 mg/kg i.p., mice",100%
same,Cardiazol % Death rate,"[1]; 800 mg/kg i.p., mice",60%
same,Cardiazol Strong % Conv.,"[1]; 800 mg/kg i.p., mice",100%
same,cardiazol-induced death,[1]; [7],did not preserve animals
same,Strychnine % Death rate,"[2]; 200 mg/kg i.p., mice",90%
same,Strychnine Strong % Conv.,"[2]; 200 mg/kg i.p., mice",100%
same,Strychnine % Death rate,"[2]; 400 mg/kg i.p., mice",100%
same,Strychnine Strong % Conv.,"[2]; 400 mg/kg i.p., mice",100%
same,Strychnine % Death rate,"[2]; 800 mg/kg i.p., mice",90%
same,Strychnine Strong % Conv.,"[2]; 800 mg/kg i.p., mice",100%
same,strychnine-induced death,[2]; [7],did not preserve animals
same,Bicuculline % Death rate,"[3]; 200 mg/kg i.p., mice",100%
same,Bicuculline Strong % Conv.,"[3]; 200 mg/kg i.p., mice",100%
same,latency time of bicuculline-induced death,[3]; [8],significantly increased
same,Bicuculline % Death rate,"[3]; 400 mg/kg i.p., mice",75%
same,Bicuculline Strong % Conv.,"[3]; 400 mg/kg i.p., mice, 8 animals per group",100* %
same,Bicuculline % Death rate,"[3]; 800 mg/kg i.p., mice",40%
same,Bicuculline Strong % Conv.,"[3]; 800 mg/kg i.p., mice",70%
same,bicuculline-induced first convulsion latency time,"[3]; 800 mg/kg i.p., mice, versus control",significantly increased
same,bicuculline-induced death,[3]; [7],did not preserve animals
same,Picrotoxin % Death rate,"[4]; 200 mg/kg i.p., mice",20%
same,Picrotoxin Strong % Conv.,"[4]; 200 mg/kg i.p., mice",100%
same,picrotoxin-induced first convulsion latency time,[4]; [8],significantly increased
same,Picrotoxin % Death rate,"[4]; 400 mg/kg i.p., mice",30%
same,Picrotoxin Strong % Conv.,"[4]; 400 mg/kg i.p., mice",100%
same,Picrotoxin % Death rate,"[4]; 800 mg/kg i.p., mice",70%
same,Picrotoxin Strong % Conv.,"[4]; 800 mg/kg i.p., mice",30%
same,picrotoxin-induced death,[4]; [7],did not preserve animals
"NS(=O)(=O)CCCN=C(c1ccc(Cl)cc1)c1cc(F)ccc1O [ST 505, 3-[[a-(p-chlorophenyl)-5-fluoro-2-hydroxybenzylidene]amino]propanesulfonamide]",tolerability,male albino Swiss mice,well tolerated
same,cardiazole response,"[1]; oral, 100 mg/kg eq. 3-APS",did not change
same,Cardiazol % Death rate,[1]; [9],90%
same,Cardiazol Strong % Conv.,[1]; [9],90%
same,latency time of cardiazole-induced first convulsion,[1]; [10],increased
same,Cardiazol % Death rate,[1]; [11],40%
same,Cardiazol Strong % Conv.,[1]; [11],80%
same,reduction of strychnine-induced death rate,"[2]; oral, 100 mg/kg eq. 3-APS",20%
same,Strychnine % Death rate,[2]; [9],30%
same,Strychnine Strong % Conv.,[2]; [9],60%
same,strychnine-induced convulsions and death,"[2]; oral, 200 mg/kg eq. 3-APS",preserved all the animals
same,Strychnine % Death rate,[2]; [11],0%
same,Strychnine Strong % Conv.,[2]; [11],0%
same,reduction of bicuculline-induced death rate,"[3]; oral, 100 mg/kg eq. 3-APS",20%
same,latency time of the bicuculline-induced death,[3]; [12],significantly increased
same,latency time of the bicuculline-induced first convulsion,[3]; [12],significantly increased
same,Bicuculline % Death rate,[3]; [9],80%
same,Bicuculline Strong % Conv.,[3]; [9],100%
same,latency time of bicuculline-induced death,[3]; [10],increased
same,latency time of bicuculline-induced first convulsion,[3]; [10],increased
same,Bicuculline % Death rate,[3]; [11],80%
same,Bicuculline Strong % Conv.,[3]; [11],100%
same,picrotoxin response,"[4]; oral, 100 mg/kg eq. 3-APS",did not change
same,Picrotoxin % Death rate,[4]; [9],90%
same,Picrotoxin Strong % Conv.,[4]; [9],100%
same,latency time of picrotoxin-induced first convulsion,[4]; [10],increased
same,Picrotoxin % Death rate,[4]; [11],90%
same,Picrotoxin Strong % Conv.,[4]; [11],100%
same,Cardiazol % Death rate,"[5]; RAT, 100 mg/kg eq. 3 APS",60%
same,Cardiazol Strong % Conv.,"[5]; RAT, 100 mg/kg eq. 3 APS",60%
same,death rate reduction,"[5]; Wistar rats, dose equimolar to 100 mg 3-APS",30%
same,first convulsion latency time,"[5]; Wistar rats, dose equimolar to 100 mg 3-APS, versus control",significant increase
same,"area under the curve of average number of seizures and their duration versus time, compared with controls",FeCl3-induced epilepsy,statistically significant difference
same,death rate,auricular electroshock; dose 200 (unit not given),4/10
same,death rate,auricular electroshock; dose 400 (unit not given),5/10
same,area of the peaks,"[6]; 250 mg/10 ml/kg oral, versus controls, Mann Whitney's U test",significantly decreased
same,Peak area,"[6]; MEAN (S.E.), 250 mg/kg oral, 5-hour EEG recording",52.9 (5.87)**
same,Ist shape index,"[6]; MEAN (S.E.), 250 mg/kg oral, percentile 50% of accumulation function",8.5 (1.0)**
same,2nd shape index,"[6]; MEAN (S.E.), 250 mg/kg oral, percentile 60% of accumulation function",9.8 (1.2)
same,3rd shape index,"[6]; MEAN (S.E.), 250 mg/kg oral, percentile 70% of accumulation function",11.8 (1.4)
same,4th shape index,"[6]; MEAN (S.E.), 250 mg/kg oral, percentile 80% of accumulation function",13.8 (1.4)
"NS(=O)(=O)CCCN=C(c1ccccc1)c1ccccc1O [ST 512, 3-[(a-phenyl)-2-hydroxybenzylidene] amino propanesulfonamide]",tolerability,male albino Swiss mice,well tolerated
same,Cardiazol % Death rate,[1]; [13],50%
same,Cardiazol Strong % Conv.,[1]; [13],100%
same,Cardiazol % Death rate,[1]; [14],60%
same,Cardiazol Strong % Conv.,[1]; [14],100%
same,reduction of cardiazol-induced death rate,"[1]; oral, dose equimolar to 100 mg/10ml/kg of 3-APS, mice",20%
same,reduction of cardiazol-induced death rate,"[1]; oral, dose equimolar to 200 mg/10ml/kg of 3-APS, mice",10%
same,Strychnine % Death rate,[2]; [13],80%
same,Strychnine Strong % Conv.,[2]; [13],90%
same,Strychnine % Death rate,[2]; [14],90%
same,Strychnine Strong % Conv.,[2]; [14],80%
same,Bicuculline % Death rate,[3]; [13],100%
same,Bicuculline Strong % Conv.,[3]; [13],90%
same,Bicuculline % Death rate,[3]; [14],100%
same,Bicuculline Strong % Conv.,[3]; [14],100%
same,Picrotoxin % Death rate,[4]; [13],40%
same,Picrotoxin Strong % Conv.,[4]; [13],100%
same,Picrotoxin % Death rate,[4]; [14],50%
same,Picrotoxin Strong % Conv.,[4]; [14],100%
same,death rate,auricular electroshock; dose 200 (unit not given),3/10
same,death rate,auricular electroshock; dose 400 (unit not given),4/10
